US20120095055A1, “HEXAHYDROCYCLOPENTYL[f]INDAZOLE 5-HYDROXYMETHYL ETHANOLS AND DERIVATIVES THEREOF AS SELECTIVE GLUCOCORTICOID RECEPTOR MODULATORS” (Merck Sharp & Dohme, Corp., priority 2009, published 2012)

Biological target: T1, human GR (Homo sapiens, UniProt P04150)
T1 construct: naturally expresses the human GR; endogenous in cells
T1 sequence (P04150 1-777): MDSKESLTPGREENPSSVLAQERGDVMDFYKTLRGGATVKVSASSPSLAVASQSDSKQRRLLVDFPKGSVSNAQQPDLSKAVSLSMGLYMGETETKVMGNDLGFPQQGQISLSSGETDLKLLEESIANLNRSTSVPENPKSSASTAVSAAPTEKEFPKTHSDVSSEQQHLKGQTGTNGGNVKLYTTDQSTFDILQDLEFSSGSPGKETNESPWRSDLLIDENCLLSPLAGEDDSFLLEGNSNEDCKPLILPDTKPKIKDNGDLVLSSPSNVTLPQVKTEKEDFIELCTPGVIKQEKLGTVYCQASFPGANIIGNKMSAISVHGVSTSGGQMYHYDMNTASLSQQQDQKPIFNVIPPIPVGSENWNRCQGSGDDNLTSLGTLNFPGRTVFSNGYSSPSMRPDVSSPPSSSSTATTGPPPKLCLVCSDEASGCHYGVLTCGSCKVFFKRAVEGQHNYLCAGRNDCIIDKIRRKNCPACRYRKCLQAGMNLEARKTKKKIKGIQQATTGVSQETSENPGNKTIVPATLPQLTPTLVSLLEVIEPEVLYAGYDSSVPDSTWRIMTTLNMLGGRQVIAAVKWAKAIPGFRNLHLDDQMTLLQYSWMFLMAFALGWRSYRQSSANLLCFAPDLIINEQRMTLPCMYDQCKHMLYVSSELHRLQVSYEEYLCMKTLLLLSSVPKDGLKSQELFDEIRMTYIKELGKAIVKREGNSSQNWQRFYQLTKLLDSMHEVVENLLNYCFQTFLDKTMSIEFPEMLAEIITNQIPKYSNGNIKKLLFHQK
Assay: Trans-Activation Modulation of Glucocorticoid Receptor Assay (GRAMMER), MMTV-LUC reporter in A549 cells
Assay type: cell-based
Settings: for Transactivation A549 Cells GRAMMER Emax (%): Emax relative to the activity obtained with 300 nM dexamethasone; for EC50: inflection point (IP), MMTV-LUC reporter, read-out: Transactivation A549 Cells GRAMMER IP; for Emax: A549, Emax relative to the activity obtained with 300 nM dexamethasone, read-out: Transactivation A549 Cells GRAMMER Emax (%)
From the text: This assay assesses the ability of test compounds to control transcription from the MMTV-LUC reporter gene in lung adenocarcinoma A549 cells or HeLa cells, a human […] cell line that naturally expresses the human GR. The assay measures induction of a modified MMTV LTR/promoter linked to the LUC reporter gene.
The routine transient assay consists of plating 7,000-25,000 cells/well of a white, clear-bottom 96-well plate. Alternatively, 384-well plates can be used at a cell concentration of 10,000/well. The media that the cells are plated in is “exponential growth medium” which consists of phenol red-free RPMI1640 containing 10% FBS, 4 mM L-glutamine, 20 mM HEPES, 10 ug/mL human insulin, and 20 ug/mL gentamicin. Incubator conditions are 37° C. and 5% CO2. The transfection is done in batch mode. The cells are trypsinized and counted to the right cell number in the proper amount of fresh media. It is then gently mixed with the FuGene6/DNA mix and plated onto the 96 or 384-well plate, all the wells receive 100 uL or 40 uL, respectively, of medium+lipid/DNA complex then incubated 37° C. overnight. The transfection cocktail consists of serum-free OptiMEM, FuGene6 reagent and DNA. The manufacturer's (Roche Biochemical) protocol for cocktail setup is as follows: The lipid to DNA ratio is approximately 2.5:1 and the incubation time is 20 min at room temperature. Sixteen to 24 hours after transfection, the cells are treated with dexamethasone to a final concentration of 10 nM as well as the compound of interest, such that final DMSO (vehicle) concentration is equal to or less than 1%. Each plate also contains samples that are treated with 10 nM dexamethasone alone, which is used as the 100% activity control. The cells are exposed to the compounds for 24 hours. After 24 hours, the cells are lysed by a Promega cell culture lysis buffer for approximately 30 min and then the luciferase activity in the extracts is assayed in the 96-well format luminometer. In 384-well format, Steady-Glo (Promega) or Steady-Lite (PerkinElmer) can be used by adding an equal volume of reagent to the media present in each well. Activity induced by 10 nM dexamethasone alone is set at 100% activity. Antagonist activity is calculated by determining the decrease in dexamethasone-induced activity in response to compound treatment relative to samples that were treated with dexamethasone alone. Results are expressed as % inhibition of 10 nM dexamethasone activity or as fold of 10 nM dexamethasone activity. This transactivation assay can be performed in an agonist and antagonist mode to identify these different activities.
Activity of test compounds is calculated as the Emax relative to the activity obtained with 300 nM dexamethasone. Activity of test compounds is calculated as the Emax relative to the activity obtained with 300 nM DEX. The exemplified tissue selective glucocorticoid receptor modulators of the present invention display agonist activity in this assay of greater than 5% and less than 100%, and maximal transactivation activity less then maximal transrepression activity. […]

SMILES	Transactivation A549 Cells GRAMMER Emax (%)	EC50	Emax
C[C@]12Cc3cnn(-c4ccc(F)cc4)c3C=C1CC[C@@]2(CO)CC(O)c1ccccn1 (single isomer, unassigned) [Example 1a]	83.9%	5.6 nM	
C[C@]12Cc3cnn(-c4ccc(F)cc4)c3C=C1CC[C@@]2(CO)CC(O)c1ccccn1 (single isomer, unassigned) [Example 1b]	56.0%	26.4 nM	
C[C@]12Cc3cnn(-c4ccc(F)cc4)c3C=C1CC[C@@]2(CO)CC(O)c1ccccc1Cl (single isomer, unassigned) [Example 3a]		38.8 nM	127%
C[C@]12Cc3cnn(-c4ccc(F)cc4)c3C=C1CC[C@@]2(CO)CC(O)c1cc(F)cc(Cl)c1 (single isomer, unassigned) [Example 6a]	62.4%	30.5 nM	
C[C@]12Cc3cnn(-c4ccc(F)cc4)c3C=C1CC[C@@]2(CO)CC(O)c1cc(F)cc(Cl)c1 (single isomer, unassigned) [Example 6b]	84.7%	124 nM	
C[C@]12Cc3cnn(-c4ccc(F)cc4)c3C=C1CC[C@@]2(CO)CC(O)c1ncccc1F (single isomer, unassigned) [Example 10a]		23.7 nM	56.6%
C[C@]12Cc3cnn(-c4ccc(F)cc4)c3C=C1CC[C@@]2(CO)CC(O)c1ncccc1F (single isomer, unassigned) [Example 10b]	67.0%	12.4 nM	
C[C@]12Cc3cnn(-c4ccc(F)cc4)c3C=C1CC[C@@]2(CO)CC1OC(=O)c2ccccc21 (single isomer, unassigned) [Example 12a]		127 nM	47.4%
C[C@]12Cc3cnn(-c4ccc(F)cc4)c3C=C1CC[C@@]2(CO)CC1OC(=O)c2ccccc21 (single isomer, unassigned) [Example 12b]	54.2%	33.3 nM	
CC(C)C(O)C[C@]1(CO)CCC2=Cc3c(cnn3-c3ccc(F)cc3)C[C@@]21C (single isomer, unassigned) [Example 14a]		479 nM	25%
CC(C)C(O)C[C@]1(CO)CCC2=Cc3c(cnn3-c3ccc(F)cc3)C[C@@]21C (single isomer, unassigned) [Example 14b]	32.6%	206 nM	
C[C@]12Cc3cnn(-c4ccc(F)cc4)c3C=C1CC[C@@]2(CO)CC(O)C1CCCCC1 (single isomer, unassigned) [Example 18a, 1-cyclohexyl-2-[(4αS)-1-(4-fluorophenyl)-5-(hydroxymethyl)-4α-methyl-1,4,4α,5,6,7-hexahydrocyclopenta[f]indazol-5-yl]ethanol]		22.3 nM	55.3%
C[C@]12Cc3cnn(-c4ccc(F)cc4)c3C=C1CC[C@@]2(CO)CC(O)C1CCCCC1 (single isomer, unassigned) [Example 18b, 1-cyclohexyl-2-[(4αS)-1-(4-fluorophenyl)-5-(hydroxymethyl)-4α-methyl-1,4,4α,5,6,7-hexahydrocyclopenta[f]indazol-5-yl]ethanol]	56.2%	59.6 nM	
C[C@]12Cc3cnn(-c4cccc(F)c4)c3C=C1CC[C@@]2(CO)CC(O)c1ccccn1 (single isomer, unassigned) [Example 19a]		41.9 nM	43.7%
C[C@]12Cc3cnn(-c4cccc(F)c4)c3C=C1CC[C@@]2(CO)CC(O)c1ccccn1 (single isomer, unassigned) [Example 19b]	24.2%	94.8 nM	
C[C@]12Cc3cnn(-c4ccc(F)cc4)c3C=C1CC[C@@]2(CO)CC(O)C1CC1 (single isomer, unassigned) [Example 20a, 1-cyclopropyl-2-[(4αS)-1-(4-fluorophenyl)-5-(hydroxymethyl)-4α-methyl-1,4,4α,5,6,7-hexahydrocyclopenta[f]indazol-5-yl]ethanol]	23.1%	187 nM	

Continued, values first:

Transactivation A549 Cells GRAMMER Emax (%)	EC50	Emax	SMILES
46.6%	485 nM		Cc1ccc(C(O)C[C@]2(CO)CCC3=Cc4c(cnn4-c4ccc(F)cc4)C[C@@]32C)cc1 (single isomer, unassigned) [Example 2a]
	316 nM	45.5%	Cc1ccc(C(O)C[C@]2(CO)CCC3=Cc4c(cnn4-c4ccc(F)cc4)C[C@@]32C)cc1 (single isomer, unassigned) [Example 2b]
130.3%	16.7 nM		C[C@]12Cc3cnn(-c4ccc(F)cc4)c3C=C1CC[C@@]2(CO)CC(O)c1ccccc1Cl (single isomer, unassigned) [Example 3b]
	78.8 nM	65.5%	Cc1cccc(C(O)C[C@]2(CO)CCC3=Cc4c(cnn4-c4ccc(F)cc4)C[C@@]32C)c1 (single isomer, unassigned) [Example 5a]
58.4%	23.6 nM		Cc1cccc(C(O)C[C@]2(CO)CCC3=Cc4c(cnn4-c4ccc(F)cc4)C[C@@]32C)c1 (single isomer, unassigned) [Example 5b]
	58.8 nM	60.2%	C[C@]12Cc3cnn(-c4ccc(F)cc4)c3C=C1CC[C@@]2(CO)CC(O)c1cccc(C(F)(F)F)c1 (single isomer, unassigned) [Example 7a]
55.8%	39.3 nM		C[C@]12Cc3cnn(-c4ccc(F)cc4)c3C=C1CC[C@@]2(CO)CC(O)c1cccc(C(F)(F)F)c1 (single isomer, unassigned) [Example 7b]
	8.8 nM	73.1%	C[C@]12Cc3cnn(-c4ccc(F)cc4)c3C=C1CC[C@@]2(CO)CC(O)c1ccccc1 (single isomer, unassigned) [Example 13a]
57.5%	7.2 nM		C[C@]12Cc3cnn(-c4ccc(F)cc4)c3C=C1CC[C@@]2(CO)CC(O)c1ccccc1 (single isomer, unassigned) [Example 13b]
	68.1 nM	52.7%	C[C@]12Cc3cnn(-c4ccc(F)cc4)c3C=C1CC[C@@]2(CO)CC(O)c1cccnc1 (single isomer, unassigned) [Example 15a]
39.3%	149 nM		C[C@]12Cc3cnn(-c4ccc(F)cc4)c3C=C1CC[C@@]2(CO)CC(O)c1cccnc1 (single isomer, unassigned) [Example 15b]
	101 nM	26.4%	C[C@]12Cc3cnn(-c4ccc(F)cc4)c3C=C1CC[C@@]2(CO)CC(O)c1ccncc1 (single isomer, unassigned) [Example 17a]
35.6%	77.5 nM		C[C@]12Cc3cnn(-c4ccc(F)cc4)c3C=C1CC[C@@]2(CO)CC(O)c1ccncc1 (single isomer, unassigned) [Example 17b]
